Publication PMC9767416, “Discovery of small molecule mechanistic target of rapamycin inhibitors as anti-aging and anti-cancer therapeutics” (Frontiers in Aging Neuroscience, 2022)
In brackets after ≈: the same amount, converted by molar mass. Like-named read-outs stand apart in the source and are kept apart here. Marks after values point to notes of the source that are not given here.

How the values were obtained:
[1] = Dissociation constants by spectrophotometric titration; format: physicochemical; details: 20°C; for pKa: ultrapure water
Procedure: The spectrophotometric titration was used for dissociation constants’ determination, utilizing spectrophotometer Agilent Cary-60 (Agilent Technologies, CA, USA), pH meter WTW InoLab_IDS Multi 9430 (WTW, Czech Republic), and pH electrode SenTix® Mic (WTW, Czech Republic). Data were analyzed by GraphPadPrism 8.0 software (GraphPad Software, CA, USA). The analyzed samples were prepared by adding 20 μL of compound stock solution (2 mg/mL) and 20 μL of 0.1 M hydrochloric acid into the cuvette with ultrapure water (total volume 3.5 mL). The samples were titrated by 0.1 M sodium hydroxide at 20°C while acquiring absorption spectra (190–500 nm) at different pH values. Absorbance at the chosen wavelength was plotted as a function of pH. The inflection point in the given plot was used for pKa value determination.

BJ, RPE-1 and U373 cells = test: Crystal violet and resazurin proliferation screen in proliferating cells; format: cell-based, human; details: RPE-1, U373, 0, 10, 50, 80, 100 μM, 24 h
Procedure: All cell lines used in the study were obtained from the American Type Culture Collection (ATCC, Manassas, VA, USA). Human telomerase-immortalized retinal pigment epithelial cells RPE-1, glioblastoma U-87 MG, glioblastoma U373MG, glioblastoma T98G, glioblastoma A-172, breast adenocarcinoma MDA-MB-231, prostate carcinoma DU-145, and non-small cell lung cancer NCI-H1299 cell lines were cultured in Dulbecco’s modified Eagle’s medium (DMEM, Thermo Fisher Scientific, Waltham, MA, USA) with high glucose (4.5 g/L). Primary human skin BJ fibroblasts were cultured in Dulbecco’s modified Eagle’s medium (DMEM, Thermo Fisher Scientific, Waltham, MA, USA) with low glucose (1 g/L). Both cell culture media were supplemented with 10% fetal bovine serum (FBS, Gibco/Thermo Fisher Scientific) and non-essential amino acids (NEAA), 100 units/mL of penicillin, and 100 μg/mL of streptomycin (Sigma-Aldrich). Cells were kept at 37°C under a 5% CO2 atmosphere and 95% humidity.
(§1) Twenty-four hours before treatment, cells were plated in 96-well plates at densities of 2,850 cells per well for senescent RPE-1 (IR-RPE-1), 3,350 cells per well for proliferating RPE-1 and senescent BJ (DIS-BJ), and 5,000 cells per well for U373, T98, A172, U87, TMZ-U87, and proliferating BJ cells.
(§2) For the crystal violet assay, the cells were washed twice with 150 μL PBS and stained with 30 μL 0.5% (w/v) crystal violet in 20% methanol for 15 mins. Next, the plates were washed five times with ddH2O and left to dry overnight. Crystal violet was solubilized with 75 μL 0.2% Triton X-100 (Sigma) in PBS for 15 mins. The absorbance was read at 595 nm using a microplate reader (Envision, PerkinElmer, Waltham, MA, USA). The absorbance of crystal violet in treated cells was expressed as a percentage of absorbance in untreated cells. Each condition was measured at least in triplicate.
For the resazurin assay, 200 μL of the culture medium of each well was exchanged for 100 μL of resazurin (stock solution 30 mg/mL; Sigma, St. Louis, MO, USA) diluted 10 times in the culture medium, and the cells were incubated at 37°C for 1–3 h. Reading of fluorescence was done using a microplate reader (PerkinElmer, Waltham, MA, USA). Absolute values of fluorescence were related to the values of untreated cells. Each condition was measured at least in triplicate.

[2] = Shake-flask partition coefficient logP and distribution coefficient logD (pH 7.4); format: physicochemical; details: for logD: n-octanol/sodium phosphate buffer pH 7.4; for logP: n-octanol/water
Procedure: Before the initiation of the intended experiments, all solvents were mutually saturated at 21°C. […] For saturation, large stock bottles containing n-octanol and 12% of water/buffer or water/buffer and 12% of n-octanol were shaken for 30 mins on a mechanical shaker and subsequently left to stand on the bench overnight until the phases separated. Approximately 0.50 mg of tested substance was added to the test vessels alongside with 1:1 volume ratio of saturated solvents (250 μL). The test vessels were shaken on the mechanical shaker (Multi Reax, Heidolph Instruments, Schwabach, Germany) for 30 min at the highest speed and then centrifuged for phase separation (16.873 × g for 5 min; Eppendorf 5418 Microcentrifuge, Prague, Czech Republic). Both organic and aqueous phases were sampled for LC-MS analysis. UHPLC-DAD-MS (UHPLC Infinity II 1290, detection by DAD and QqQ 6470; Agilent Technologies, CA, USA; separation on Arion C18 polar column 100 × 2.1 mm, 2.1 μm; Chromservis, Czech Republic) was used for determination of the exact concentration of tested substances. The total quantity of substance (in both phases) was used for logP/logD values calculation.

[3] = Solubility by nephelometry (water, buffer pH 7.4); format: physicochemical; details: for solubility at 30 s: medium not told apart (water and buffer pH 7.4)
Procedure: Compounds’ solubility was measured by the NEPHELOstar microplate instrument (BMG Labtech, Offenburg, Germany). Stock solutions were prepared by dissolving the tested compounds in ultrapure water or sodium phosphate buffer (pH 7.4) to obtain a concentration of 160 and 1,000 μg/mL. Each stock solution was sonicated at full power by Hielscher UP100H needle ultrasonic processor (Teltow, Germany) before loading into NEPHELOstar instrument injector A. Ultrapure water or sodium phosphate buffer was loaded into injector B. Compound was diluted in 48 wells in 0–160 or 0–1,000 μg/mL range and subsequently shook for 30 s. Each well was scanned with 80% laser power in matrix 3 × 3, beam width 2 mm, and obtained data were evaluated in GraphPad Prism 7.03 (GraphPad Software, San Diego, CA, USA) using segmental linear regression.

[4] = CNS MPO desirability score
Procedure: ACDLAbs PhysChem Suite 14.0 software (Advanced Chemistry Development, Inc., Toronto, ON, Canada) was used for the calculation of Mw, tPSA, and HBD values. The CNS MPO score calculation method was described by [Wager et al. (2016)].
Central nervous system multiparameter optimization desirability score was calculated as described by [Wager et al. (2016)], utilizing all collected experimental and calculated data. This scoring tool was set on ranges of desirable property space and linear transformational functions with values between 0 and 1 (defined as T0 for each property). Rating each parameter equally, the collective score ranges from 0 to 6, while a score higher than 4 is desirable ([Rankovic, 2015]).

[5] = system: IR-induced senescent RPE-1 cells; test: Crystal violet and resazurin assays in IR-induced senescent RPE-1; format: cell-based, human; details: γ-irradiated RPE-1; crystal violet readout only
Procedure: To obtain ionizing radiation (IR)-induced senescent cells, proliferating RPE-1 cells were exposed to a single dose of X-rays (20 Gy) using Pantak HF160 (Gulmay, Surrey, UK) X-ray instrument equipped with Pantak Seifert HF320 generator, MXR-161 X-ray tube (Comet AG, Flamatt, Switzerland), and an aluminum filter using current 1–10 mA. After irradiation, the cells were cultured for an additional 7 days until the development of the senescent phenotype ([Salovska et al., 2022]). To induce docetaxel-induced senescence (DIS), BJ cells were exposed to 5 nM docetaxel for 7 days, as described previously ([Sapega et al., 2018]). To prepare temozolomide (TMZ)-induced senescence, U87 cells were exposed to 100 μM TMZ for 14 days.
as §1, §2
For the resazurin assay, 200 μL of the culture medium of each well was exchanged for 100 μL of resazurin (stock solution 30 mg/mL; Sigma, St. Louis, MO, USA) diluted 10 times in the culture medium, and the cells were incubated at 37°C for 1–3 h. Reading of fluorescence was done using a microplate reader (PerkinElmer, Waltham, MA, USA). Absolute values of fluorescence were related to the values of untreated cells. Each condition was measured at least in triplicate. […]

[6] = aqueous buffer, sodium phosphate buffer pH 7.4, nephelometry, read-out: Sol. (buffer 7.4)
[7] = ultrapure water, nephelometry, read-out: Sol. (H2O)
[8] = from experimental and calculated data, method of Wager et al. (2016), scale 0-6
[9] = n-octanol/sodium phosphate buffer, pH 7.4, shake-flask, read-out: logD
[10] = sodium phosphate buffer pH 7.4, nephelometry

SMILES | pKa ([1]; read-out: pKa1) | melting point | effect on the readout of crystal violet and resazurin assays (BJ, RPE-1 and U373 cells) | logD ([2]; shake-flask) | logP ([2]; shake-flask) | solubility kinetic at 30 s [3, 6] | solubility kinetic at 30 s [3, 7] | logSH2O ([3]; water) | MPO (CNS MPO score) [4, 8] | logSpH 7.4 ([3]; buffer pH 7.4) | solubility at 30 s [3] | logD [2, 9] | logP ([2]; shake-flask, read-out: logP) | Sol. (buffer 7.4) [3, 10] | Sol. (H2O) ([3]; ultrapure water, nephelometry) | further results
c1ccc2[nH]c(NC3CCNCC3)nc2c1 [Compound 1, N-(piperidine-4-yl)-1H-benzo[d]imidazol-2-amine] | 6.18 ± 0.04 | 227 to 229 °C | mild (although sometimes statistically significant) suppressive effect | 0.85 ± 0.03 | 1.86 ± 0.07 | > 160 µg/mL | 33.3 µg/mL (≈ 154 µM) | −3.81 | 5.2 |  |  |  |  |  |  | 
Br.Br.c1ccc2[nH]c(NC3CCNCC3)nc2c1 [Compound 2, N-(piperidin-4-yl)-1H-benzo[d]imidazol-2-amine dihydrobromide] |  | 275 to 277 °C | mild (although sometimes statistically significant) suppressive effect | −0.89 ± 0.11 | −1.01 ± 0.01 | 299 µg/mL | > 1000 µg/mL | >−2.58 | 4.9 | −3.10 | > 1000 µg/mL |  |  |  |  | pKa1 [1]: 6.08 ± 0.08
NC(=O)[C@@H]1CC[C@H](C(=O)O)N1 [Compound 4] | 3.17 ± 0.09 |  | mild (although sometimes statistically significant) suppressive effect |  |  | > 1000 µg/mL | > 1000 µg/mL | >−2.20 | 4.9 | >−2.20 | > 1000 µg/mL | -2.82 ± 0.22 | -2.89 ± 0.16 |  |  | pKa ([1]; read-out: pKa2): 7.8 ± 0.11
COc1ccc(CN2CCNC2=N)cc1OC [Compound 5] |  |  | no effect |  |  |  |  |  |  |  |  | -1.78 ± 0.08 | -1.79 ± 0.04 |  |  | selectivity for senescent versus proliferating cells [5]: mild but selective effect; logSH2O ([3]; 30 s): >−3.36; logSpH 7.4 ([3]; 30 s, pH 7.4): >−3.36; solubility kinetic at 30 s ([3]; pH 7.4, aqueous buffer): > 160 µg/mL; solubility kinetic at 30 s ([3]; water): > 160 µg/mL; MPO (CNS MPO score) ([4]; experimental pKa unknown: calculated with T0(pKa) equal to zero): 4.5^a
CN(C)c1cccc(-c2cccc(C(N)=O)c2)c1 [Compound 6, 3’-(Dimethylamino)-[1,1’-biphenyl]-3-carboxamide] | 4.8 ± 0.06 | 104 to 106 °C | mild (although sometimes statistically significant) suppressive effect |  |  | < 6 µg/mL | < 6 µg/mL | <−4.60 | 5 | <−4.60 |  | 2.91 ± 0.01 | 2.86 ± 0.01 | lower than 6 μg/mL | lower than 6 μg/mL | 
CO[C@H]1C[C@@H]2CC[C@@H](C)[C@@](O)(O2)C(=O)C(=O)N2CCCC[C@H]2C(=O)O[C@H]([C@H](C)C[C@@H]2CC[C@@H](O)[C@H](OC)C2)CC(=O)[C@H](C)/C=C(\C)[C@@H](O)[C@@H](OC)C(=O)[C@H](C)C[C@H](C)/C=C/C=C/C=C/1C [Rapamycin, rapamycin] | 10.7 ± 0.21 |  |  |  |  | < 6 µg/mL | < 6 µg/mL | <−5.18 | 0.7 | <−5.18 |  | 4.63 ± 0.04 | 3.97 ± 0.03 | lower than 6 μg/mL | lower than 6 μg/mL | logSpH 7.4 ([3]; buffer pH 7.4, listed as rapamycin): < −4.60; logSH2O ([3]; water, listed as rapamycin): < −4.60
